Results from patent publication US20060183902A1, “Dihydroindolyl methanones as alpha 1a/1d adrenoreceptor modulators for the treatment of benign prostatic hypertrophy and lower urinary tract symptoms” (priority 2005, published 2006).
Where “and” joins values, the source holds several entries; their conditions need not be identical. Identical values can stand only once. Like-named read-outs stand apart in the source and are kept apart here.

Experiments:
α1a-AR = molecular target: T1, α1a-AR (Homo sapiens, UniProt P35348); assay: α1-Adrenergic receptor radio-ligand (125I-HEAT) binding assay, α1a subtype; details: COS-7 cell membranes transfected with α1a-AR, 125I-HEAT 50 pM
T1 construct: expressed in transfected cells; host or cells: COS-7
T1 sequence (P35348 1-466): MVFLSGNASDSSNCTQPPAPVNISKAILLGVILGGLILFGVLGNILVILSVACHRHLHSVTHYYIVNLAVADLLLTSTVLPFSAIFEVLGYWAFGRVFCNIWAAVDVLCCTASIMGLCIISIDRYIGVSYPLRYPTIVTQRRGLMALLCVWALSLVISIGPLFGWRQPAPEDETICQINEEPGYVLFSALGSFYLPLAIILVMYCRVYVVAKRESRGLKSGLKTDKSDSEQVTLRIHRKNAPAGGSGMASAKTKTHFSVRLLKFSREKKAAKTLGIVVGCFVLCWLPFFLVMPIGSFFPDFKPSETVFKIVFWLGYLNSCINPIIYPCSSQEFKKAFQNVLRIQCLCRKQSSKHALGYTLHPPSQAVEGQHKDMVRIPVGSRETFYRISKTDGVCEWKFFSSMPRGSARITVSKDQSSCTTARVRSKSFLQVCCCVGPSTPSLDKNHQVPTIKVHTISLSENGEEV
Procedure: (§1) Membranes were prepared from COS-7 cells (African Green monkey kidney SV40-transformed cells) that had been transfected with one of the three α1-AR subtypes by the following method:
(§2) COS cells from ten 100 mm tissue culture plates were scraped into a 5 mL volume of TE (a mixture of 50 mM tris(hydroxymethyl)aminomethane hydrochloride (Tris-HCl) and 5 mM ethylenediaminetetraacetic acid (EDTA) at pH 7.4). The cell suspension was disrupted with a Brinkman Polytron (at a setting of 8) for 10 sec. The disrupted cells were centrifuged at 1000×g for 10 min at 4° C. Supernatants were centrifuged at 34,500×g for 20 min at 4° C. The membrane pellets were suspended in a 2 mL volume of TNE (a mixture of 50 mM Tris-HCl, 5 mM EDTA and 150 mM NaCl at pH7.4). An aliquot of the membrane suspension was stored at −70° C. until use. The protein concentration was determined using a BioRad “DC” protein assay kit following membrane solubilization with Triton X-100.
(§3) Triplicate determinations of radio-ligand binding in the presence of increasing concentrations of testing compound were made. The reagents were added to 96-well polypropylene plate wells. Each assay well contained 140 μL TNE, 25 μL ^125I-2-(β-4-hydroxyplenyl)ethylaminomethyltetralone (^125I-HEAT) (specific activity 2200 Ci/mmol, Dupont-New England Nuclear, 50 pM final), 10 μL testing compound dissolved in dimethyl sulfoxide (DMSO) (1 pM to 10 μM in half-log increments, final), and 25 μL appropriate α1-AR membrane subtype suspension in TNE (0.5 ng/μL for the α1a and α1b subtypes and 13 ng/μL for the α1d subtype). The plate was incubated at rt for 1 hr. The contents of the wells were filtered through a glass filter (type C) (GF/C) membrane Unifilter plate (Packard Instruments) using the Packard Filtermate cell harvester. The filter plates were dried in a vacuum oven for 30 min at 40° C. 25 μL Microscint 20 liquid scintillation fluid (Packard Instuments) was added to each well. The radioactive content was analyzed in the TopCount microplate scintillation counter (Packard Instruments).
(§4) The Ki values (in nM) shown in Table 1 were determined using GraphPad Prism software.

α1b-AR = molecular target: T2, α1b-AR (Homo sapiens, UniProt P35368); assay: α1-Adrenergic receptor radio-ligand (125I-HEAT) binding assay, α1b subtype; details: COS-7 cell membranes transfected with α1b-AR, 125I-HEAT 50 pM
T2 construct: expressed in transfected cells; host or cells: COS-7
T2 sequence (P35368 1-520): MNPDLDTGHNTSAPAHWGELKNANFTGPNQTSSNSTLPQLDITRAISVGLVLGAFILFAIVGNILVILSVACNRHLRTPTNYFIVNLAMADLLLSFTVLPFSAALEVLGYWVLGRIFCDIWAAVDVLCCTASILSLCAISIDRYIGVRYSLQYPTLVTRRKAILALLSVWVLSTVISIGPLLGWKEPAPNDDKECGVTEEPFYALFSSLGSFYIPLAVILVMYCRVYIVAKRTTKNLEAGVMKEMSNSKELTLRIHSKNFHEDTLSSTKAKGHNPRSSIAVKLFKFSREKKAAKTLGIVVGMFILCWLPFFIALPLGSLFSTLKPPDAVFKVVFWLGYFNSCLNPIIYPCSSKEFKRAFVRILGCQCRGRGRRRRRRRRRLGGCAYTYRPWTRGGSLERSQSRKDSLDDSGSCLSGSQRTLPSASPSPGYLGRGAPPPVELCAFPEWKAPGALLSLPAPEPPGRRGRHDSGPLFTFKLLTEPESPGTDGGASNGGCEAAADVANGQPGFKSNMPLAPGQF
Procedure: as §1, §2, §3, §4

α1d-AR = molecular target: T3, α1d-AR (Homo sapiens, UniProt P25100); assay: α1-Adrenergic receptor radio-ligand (125I-HEAT) binding assay, α1d subtype; details: COS-7 cell membranes transfected with α1d-AR, 125I-HEAT 50 pM
T3 construct: expressed in transfected cells; host or cells: COS-7
T3 sequence (P25100 1-572): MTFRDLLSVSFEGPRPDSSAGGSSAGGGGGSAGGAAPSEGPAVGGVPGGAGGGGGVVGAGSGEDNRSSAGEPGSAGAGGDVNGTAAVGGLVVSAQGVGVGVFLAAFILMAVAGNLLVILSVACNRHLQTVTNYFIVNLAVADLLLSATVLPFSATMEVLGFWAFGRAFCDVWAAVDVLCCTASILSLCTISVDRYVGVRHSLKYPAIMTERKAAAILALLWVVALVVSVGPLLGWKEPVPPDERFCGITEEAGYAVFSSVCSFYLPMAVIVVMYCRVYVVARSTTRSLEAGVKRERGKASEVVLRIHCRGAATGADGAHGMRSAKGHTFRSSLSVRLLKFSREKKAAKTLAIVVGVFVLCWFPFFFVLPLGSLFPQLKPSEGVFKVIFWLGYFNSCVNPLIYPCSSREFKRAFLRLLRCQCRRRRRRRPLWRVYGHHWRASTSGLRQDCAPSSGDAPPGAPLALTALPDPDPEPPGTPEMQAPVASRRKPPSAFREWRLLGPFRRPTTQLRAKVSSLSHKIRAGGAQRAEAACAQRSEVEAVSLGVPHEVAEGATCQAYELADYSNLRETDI
Procedure: as §1, §2, §3, §4

[1] = read-out: Receptor Binding, Ki α1a-AR
[2] = read-out: Receptor Binding, Ki α1b-AR
[3] = read-out: Receptor Binding, Ki α1d-AR

| SMILES | Ki (α1a-AR; [1]) | Ki (α1b-AR; [2]) | Ki (α1d-AR; [3]) | Ki (α1a-AR; Receptor Binding, Ki α1a-AR) [nM] | Ki (α1b-AR; Receptor Binding, Ki α1b-AR) [nM] | Ki (α1d-AR; Receptor Binding, Ki α1d-AR) [nM] |
| --- | --- | --- | --- | --- | --- | --- |
| CC(C)Oc1ccccc1N1CCN(Cc2cccc(C(=O)N3CCc4ccc(N)cc43)c2)CC1 [Cpd 5, (6-amino-2,3-dihydro-indol-1-yl)-{3-[4-(2-isopropoxy-phenyl)-piperazin-1-ylmethyl]-phenyl}-methanone] | 1.9 nM | 143 nM | 2 nM | – | – | – |
| COc1cccc(OC)c1CNc1ccc2c(c1)N(C(=O)c1cccc(CN3CCN(c4ccccc4OC(C)C)CC3)c1)CC2 [Cpd 7, [6-(2,6-dimethoxy-benzylamino)-2,3-dihydro-indol-1-yl]-{3-[4-(2-isopropoxy-phenyl)-piperazin-1-ylmethyl]-phenyl}-methanone] | 11 nM | 684 nM | 16 nM | – | – | – |
| CCCCCCCCc1ccc(CNc2ccc3c(c2)N(C(=O)c2cccc(CN4CCN(c5ccccc5OC(C)C)CC4)c2)CC3)cc1 [Cpd 10, {3-[4-(2-isopropoxy-phenyl)-piperazin-1-ylmethyl]-phenyl}-[6-(4-octyl-benzylamino)-2,3-dihydro-indol-1-yl]-methanone] | 836 nM | – | 250 nM | – | – | – |
| Cc1ccc(OC(=O)Nc2ccc3c(c2)N(C(=O)c2cccc(CN4CCN(c5ccccc5OC(C)C)CC4)c2)CC3)cc1 [Cpd 12, (1-{3-[4-(2-isopropoxy-phenyl)-piperazin-1-ylmethyl]-benzoyl}-2,3-dihydro-1H-indol-6-yl)-carbamic acid p-tolyl ester] | – | – | – | 3.3 | 495 | 5.7 |
| CC(C)Oc1ccccc1N1CCN(Cc2cccc(C(=O)N3CCc4ccc(NC(=S)Nc5ccccc5)cc43)c2)CC1 [Cpd 13, 1-(1-{3-[4-(2-isopropoxy-phenyl)-piperazin-1-ylmethyl]-benzoyl}-2,3-dihydro-1H-indol-6-yl)-3-phenyl-thiourea] | 33 nM | 305 nM | 4 nM and 3.11 nM | – | – | – |
| CC(C)Oc1ccccc1N1CCN(Cc2cccc(C(=O)N3CCc4cc(NC(=O)Nc5ccc(Cl)cc5Cl)ccc43)c2)CC1 [Cpd 14, 1-(2,4-dichloro-phenyl)-3-(1-{3-[4-(2-isopropoxy-phenyl)-piperazin-1-ylmethyl]-benzoyl}-2,3-dihydro-1H-indol-5-yl)-urea] | 22 nM | – | 4 nM | – | – | – |
| CC(=O)Nc1ccc(S(=O)(=O)Nc2ccc3c(c2)N(C(=O)c2cccc(CN4CCN(c5ccccc5OC(C)C)CC4)c2)CC3)cc1 [Cpd 15, N-[4-(1-{3-[4-(2-isopropoxy-phenyl)-piperazin-1-ylmethyl]-benzoyl}-2,3-dihydro-1H-indol-6-ylsulfamoyl)-phenyl]-acetamide] | 1 nM | 91 nM | 700 nM | – | – | – |
| CC(C)Oc1ccccc1N1CCN(Cc2cccc(C(=O)N3CCc4ccc(NC5CCc6ccccc6C5)cc43)c2)CC1 (stereo not shown) [Cpd 16, {3-[4-(2-isopropoxy-phenyl)-piperazin-1-ylmethyl]-phenyl}-[6-(1,2,3,4-tetrahydro-naphthalen-2-ylamino)-2,3-dihydro-indol-1-yl]-methanone] | 5.5 nM | 282 nM | 3.4 nM | – | – | – |
| CC(C)Oc1ccccc1N1CCN(Cc2cccc(C(=O)N3CCc4cc(NS(N)(=O)=O)ccc43)c2)CC1 [Cpd 17, N-(1-{3-[4-(2-isopropoxy-phenyl)-piperazin-1-ylmethyl]-benzoyl}-2,3-dihydro-1H-indol-5-yl)-sulfamide] | 14 nM | 812 nM | 7.6 nM | – | – | – |
| CC(C)Oc1ccccc1N1CCN(Cc2cccc(C(=O)N3CCc4ccc(NS(N)(=O)=O)cc43)c2)CC1 [Cpd 20, N-(1-{3-[4-(2-isopropoxy-phenyl)-piperazin-1-ylmethyl]-benzoyl}-2,3-dihydro-1H-indol-6-yl)-sulfamide] | 4.7 nM and 8.1 nM | 494 nM and 394 nM | 1.9 nM and 2.6 nM | – | – | – |
| CC(C)Oc1ccccc1N1CCN(Cc2cccc(C(=O)N3CCc4cc(NC(=O)Nc5ccccc5)ccc43)c2)CC1 [Cpd 21, 1-(1-{3-[4-(2-isopropoxy-phenyl)-piperazin-1-ylmethyl]-benzoyl}-2,3-dihydro-1H-indol-5-yl)-3-phenyl-urea] | 73 nM | 1390 nM | 12.5 nM | – | – | – |
| CC(C)Oc1ccccc1N1CCN(Cc2cccc(C(=O)N3CCc4ccc(NC(=O)Nc5ccccc5)cc43)c2)CC1 [Cpd 22, 1-(1-{3-[4-(2-isopropoxy-phenyl)-piperazin-1-ylmethyl]-benzoyl}-2,3-dihydro-1H-indol-6-yl)-3-phenyl-urea] | 39 nM | 251 nM | 5 nM | – | – | – |
| COc1ccc(OC)c2c1CC(Nc1ccc3c(c1)N(C(=O)c1cccc(CN4CCN(c5ccccc5OC(C)C)CC4)c1)CC3)C2 [Cpd 29, [6-(4,7-dimethoxy-indan-2-ylamino)-2,3-dihydro-indol-1-yl]-{3-[4-(2-isopropoxy-phenyl)-piperazin-1-ylmethyl]-phenyl}-methanone] | 20.8 nM | 847 nM | – | – | – | – |
| CC(C)Oc1ccccc1N1CCN(Cc2cccc(C(=O)N3CCc4ccc(NCc5ccccc5F)cc43)c2)CC1 [Cpd 44, [6-(2-fluoro-benzylamino)-2,3-dihydro-indol-1-yl]-{3-[4-(2-isopropoxy-phenyl)-piperazin-1-ylmethyl]-phenyl}-methanone] | 1.3 nM | – | 4.2 nM | – | – | – |
| CC(C)(C)OC(=O)N1CCN(Cc2cccc(C(=O)N3CCc4ccccc43)c2)CC1 [Cpd 54, 4-[3-(2,3-dihydro-indole-1-carbonyl)-benzyl]-piperazine-1-carboxylic acid tert-butyl ester] | 67.5 nM | – | – | – | – | – |
| O=C(c1cccc(CN2CCN(c3ccccc3OCC(F)(F)F)CC2)c1)N1CCc2ccccc21 [Cpd 63, (2,3-dihydro-indol-1-yl)-(3-{4-[2-(2,2,2-trifluoro-ethoxy)-phenyl]-piperazin-1-ylmethyl}-phenyl)-methanone] | – | – | 0.5 nM and 1.9 nM | – | – | – |
